Assay results: patent publication US10611756B2, “Method of treating pancreatitis using 1,4-benzoxazine derivatives” (GLAXOSMITHKLINE INTELLECTUAL PROPERTY DEVELOPMENT LIMITED, priority 2015, dated 2020)
Several values for one entry are separate records, joined by “and”; a condition that tells them apart may be missing. Identical values can stand only once.

molecular target: human KMO (Homo sapiens, UniProt O15229); assay: KMO MS Rapidfire assay (RapidFire High-Throughput Mass Spectrometry, Method 1 or Method 2); settings: median pIC50, in at least one of the MS Rapidfire assays (Method 1 or 2); isolated human KMO-membranes, 10 μM Kynurenine, 200 μM NADPH; values exemplary only
Sequence (O15229 whole entry): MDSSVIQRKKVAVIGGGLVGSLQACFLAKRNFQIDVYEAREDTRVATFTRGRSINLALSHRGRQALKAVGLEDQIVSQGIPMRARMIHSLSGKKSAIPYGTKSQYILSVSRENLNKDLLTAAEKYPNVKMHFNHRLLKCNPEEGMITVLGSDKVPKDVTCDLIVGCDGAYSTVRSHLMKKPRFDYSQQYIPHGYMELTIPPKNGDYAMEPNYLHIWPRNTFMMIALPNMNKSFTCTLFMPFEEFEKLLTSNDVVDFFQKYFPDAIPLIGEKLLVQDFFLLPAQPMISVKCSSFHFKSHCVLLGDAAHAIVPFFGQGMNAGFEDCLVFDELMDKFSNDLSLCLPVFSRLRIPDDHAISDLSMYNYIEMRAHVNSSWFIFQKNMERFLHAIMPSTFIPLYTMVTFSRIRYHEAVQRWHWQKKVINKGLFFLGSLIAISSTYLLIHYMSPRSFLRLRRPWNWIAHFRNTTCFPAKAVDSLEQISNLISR
Protocol: KMO inhibition can be determined by MS Rapidfire assay performed on the human cloned enzyme as described herein.
100 nL DMSO was dispensed into columns 6 and 18 for high and low controls, respectively, with prior inactivation of the enzyme in column 18 by pre-dispense of 30 μL of 0.5% (v/v) TFA.
Conditions for the assay of human KMO using isolated KMO-membranes were 50 mM HEPES, pH 7.5, 2 mM DTT, 1 mM EDTA, 100 μM CHAPS, 200 μM NADPH, 10 μM Kynurenine and 8 μg/ml KMO-membranes in a total reaction volume of 10 μL.
Assays were performed by initially dispensing 5 μL of a 2× Enzyme solution (16 μg/ml KMO-membranes in 50 mM HEPES, pH 7.5, 2 mM DTT, 2 mM EDTA, 200 μM CHAPS) into plates containing 100 nL compounds and incubating for 10 min at ambient temperature. […] All additions were made using a Multidrop Combi dispenser (Thermo Fisher Scientific).
Quenched assay plates were transferred to a high-throughput RapidFire200 integrated autosampler/solid-phase extraction (SPE) system (Agilent Technologies, Wakefield, Mass.). Samples were aspirated from each well for 500 ms and 10 μL was loaded directly onto a RapidFire micro-scale SPE C18 (type C) cartridge, which was washed for 3 s with HPLC-grade water containing 0.1% (v/v) formic acid to remove non-organic components. Analytes were then eluted into the mass spectrometer, in a 3 s elution cycle, using 80% (v/v) acetonitrile/water containing 0.1% (v/v) formic acid, and the cartridge was then equilibrated by washing with water containing 0.1% (v/v) formic acid for 500 ms. This gave a total cycle time of 7 s, enabling analysis of a 384-well plate in approximately 45 min.
Both Kyn and 3-HK were detected using a Sciex AP14000 triple quadrupole mass spectrometer (Applied Biosystems, Concord, Ontario, Canada), equipped with an electrospray interface and operated in positive ion mode. […] The mass spectrometer used an ESI voltage of 5500 V and a source temperature of 600° C., with a dwell time of 50 ms for each transition.
Using the integrated peak area for 3-HK data was analysed within ActivityBase (ID Business Solutions Ltd, Surrey, UK). Dose response curves were fitted to equation (1):
100 nL DMSO was dispensed into columns 6 and 18 for high and low controls, respectively, with prior inactivation of the enzyme in column 18 by pre-dispense of 50 μL of 0.5% (v/v) TFA.

| Structure (SMILES) | IC50 |
| --- | --- |
| CC[C@@H](Oc1cc2c(cc1Cl)N(CCC(=O)O)C(=O)CO2)c1ccc(Cl)cn1 [Example 1, (R)-3-(6-Chloro-7-(1-(5-chloropyridin-2-yl)propoxy)-3-oxo-2H-benzo[b][1,4]oxazin-4(3H)-yl)propanoic Acid] | ≤ 31.6 nM and 1 nM |
| CCC(Oc1cc2c(cc1Cl)N(CCC(=O)O)C(=O)CO2)c1ccc(C)nn1 (single isomer, unassigned) [Example 29, 3-{6-chloro-7-[1-(6-methylpyridazin-3-yl)propoxy]-3-oxo-3,4-dihydro-2H-1,4-benzoxazin-4-yl}propanoic acid] | ≤ 31.6 nM |
| CCC(Oc1cc2c(cc1Cl)N(CCC(=O)O)C(=O)CO2)c1ncc(Cl)cn1 (single isomer, unassigned) [Example 26, 3-{6-chloro-7-[1-(5-chloropyrimidin-2-yl)propoxy]-3-oxo-3,4-dihydro-2H-1,4-benzoxazin-4-yl}propanoic acid] | ≤ 31.6 nM |
| CCC(Oc1cc2c(cc1Cl)N(CCC(=O)O)C(=O)CO2)c1cccnn1 (single isomer, unassigned) [Example 28, 3-{6-chloro-3-oxo-7-[1-(pyridazin-3-yl)propoxy]-3,4-dihydro-2H-1,4-benzoxazin-4-yl}propanoic acid] | ≤ 31.6 nM |
| CC(Oc1cc2c(cc1Cl)N(CCC(=O)O)C(=O)CO2)c1ncco1 (single isomer, unassigned) [Example 4, 2-amino-2-(hydroxymethyl)propane-1,3-diol; 3-{6-chloro-7-[1-(1,3-oxazol-2-yl)ethoxy]-3-oxo-3,4-dihydro-2H-1,4-benzoxazin-4-yl}propanoic acid] | ≤ 31.6 nM |
| CC(Oc1cc2c(cc1Cl)N(CCC(=O)O)C(=O)CO2)c1ncc[nH]1 (racemic) [Example 6, 2-amino-2-(hydroxymethyl)propane-1,3-diol; 3-{6-chloro-7-[1-(1H-imidazol-2-yl)ethoxy]-3-oxo-3,4-dihydro-2H-1,4-benzoxazin-4-yl}propanoic acid] | ≤ 31.6 nM |
| Cc1ncc(C(C)Oc2cc3c(cc2Cl)N(CCC(=O)O)C(=O)CO3)o1 (racemic) [Example 3, 2-amino-2-(hydroxymethyl)propane-1,3-diol; 3-{6-chloro-7-[1-(2-methyl-1,3-oxazol-5-yl)ethoxy]-3-oxo-3,4-dihydro-2H-1,4-benzoxazin-4-yl}propanoic acid] | ≤ 31.6 nM |
| CCC(Oc1cc2c(cc1Cl)N(CCC(=O)O)C(=O)CO2)c1ncccn1 (single isomer, unassigned) [Example 21, 3-{6-chloro-3-oxo-7-[1-(pyrimidin-2-yl)propoxy]-3,4-dihydro-2H-1,4-benzoxazin-4-yl}propanoic acid] | ≤ 31.6 nM |
| CCC(Oc1cc2c(cc1Cl)N(CCC(=O)O)C(=O)CO2)c1ncc(C)cn1 (single isomer, unassigned) [Example 23, 3-{6-chloro-7-[1-(5-methylpyrimidin-2-yl)propoxy]-3-oxo-3,4-dihydro-2H-1,4-benzoxazin-4-yl}propanoic acid] | ≤ 31.6 nM |
| O=C(O)CCN1C(=O)COc2cc(OCc3ccccn3)c(Cl)cc21 [Example 9, 3-[6-chloro-3-oxo-7-(pyridin-2-ylmethoxy)-3,4-dihydro-2H-1,4-benzoxazin-4-yl]propanoic acid] | ≤ 31.6 nM |
| CC(Oc1cc2c(cc1Cl)N(CCC(=O)O)C(=O)CO2)c1ncccn1 (single isomer, unassigned) [Example 7, 2-amino-2-(hydroxymethyl)propane-1,3-diol; 3-{6-chloro-3-oxo-7-[1-(pyrimidin-2-yl)ethoxy]-3,4-dihydro-2H-1,4-benzoxazin-4-yl}propanoic acid] | ≤ 31.6 nM |
